Experiment: Solubility of tacrolimus in oil solvents measured by HPLC
Assay type: physicochemical
Experimental: In this Example, the solubility of tacrolimus in various oil solvents was measured by HPLC.
Approximately 40 mg of tacrolimus was weighed and a known quantity (1-2 g) of oil was added and stirred for 5 hours at room temperature. […] If the tacrolimus appeared to be fully dissolved in under 10 g of oil the sample was then placed at 4° C. overnight. If the tacrolimus precipitated out after cold storage further oil was added and the above steps were repeated until dissolved or the 10 g of oil had been added. All samples were then centrifuged to ensure any non-dissolved tacrolimus was removed and the supernatant analysed by HPLC as described in Example 1.

Solubility (% wt) (tacrolimus in Capric caprylic trigylcerides): 0.44 % wt
Solubility (% wt) (tacrolimus in Castor oil): 1.44 % wt
Solubility (% wt) (tacrolimus in Cyclomethicone): 0.004 % wt
Solubility (% wt) (tacrolimus in Dibutyl adipate, room temperature, then 4° C. overnight, *assay within 95% of theoretical maximum, likely solubility greater than stated): 3.24* % wt
Solubility (% wt) (tacrolimus in Diethyl sebacate, room temperature, then 4° C. overnight, *assay within 95% of theoretical maximum, likely solubility greater than stated): 3.26* % wt
Solubility (% wt) (tacrolimus in Diisopropyl adipate, room temperature, then 4° C. overnight, *assay within 95% of theoretical maximum, likely solubility greater than stated): 3.08* % wt
Solubility (% wt) (tacrolimus in Dimethicone): 0.004 % wt
Solubility (% wt) (tacrolimus in Heptylmethylnonane): 0.006 % wt
Solubility (% wt) (tacrolimus in Isopropyl isostearate): 0.19 % wt
Solubility (% wt) (tacrolimus in Isopropyl myristate): 0.25 % wt
Solubility (% wt) (tacrolimus in Isopropyl palmitate): 0.26 % wt
Solubility (% wt) (tacrolimus in Mineral oil): 0.003 % wt
Structure (SMILES): C=CC[C@@H]1/C=C(\C)C[C@H](C)C[C@H](OC)[C@H]2O[C@@](O)(C(=O)C(=O)N3CCCC[C@H]3C(=O)O[C@H](/C(C)=C/[C@@H]3CC[C@@H](O)[C@H](OC)C3)[C@H](C)[C@@H](O)CC1=O)[C@H](C)C[C@@H]2OC [tacrolimus]
